Assay results as given in patent US20240351996A1, “CDK19-SELECTIVE INHIBITORS, AND METHODS OF USE THEREOF” (CZ BIOHUB SF, LLC, priority 2022, published 2024).

Assays:
CDK19/CycC = CDK19/CycC (Homo sapiens, UniProt Q9BWU1); assay: LanthaScreen europium kinase binding assay (FRET displacement), CDK19; conditions: for CDK19 Selectivity: CDK19/CDK8 selectivity based on IC50 values; for IC50: his-tagged CDK19/CycC 5 nM, tracer 10 nM, 3 h incubation
Method: (§1) FRET Displacement Assay to Measure IC50: The CDK19/CDK8 IC50 values were measured to evaluate activity and to determine CDK19/CDK8 selectivity. The IC50 values of the disclosed compounds was measured using a LanthaScreen™ europium kinase binding assay (ThermoFisher), as described herein.
To a kinase buffer cocktail solution (i.e., 5× Kinase Buffer A) was added: purified recombinant his-tagged CDK19/CycC protein (5 nM), ATP-competitive kinase inhibitor scaffold kinase tracer Alexa Fluor® 665 (10 nM), biotin anti-his tag antibody (2 nM), LanthaScreen® europium-streptavidin (2 nM). An aliquot of the cocktail solution (10 μL) was added to each well of a LUMITRAC™ 200:384 flat bottom, non-treated microtiter white plate. The plate was then covered to protect light sensitive reagents and incubated for 30 min at room temperature to equilibrate before addition of any inhibitors.
(§2) A serial dilution of the compounds was titrated into each well using an automated liquid handling Staccato integrated system at the following concentration(s) (Log10 Molar [C]): −4.5, −5.0, −5.5, −6.0, −6.5, −7.0, −7.5, −8.0 so that a complete dose-response could be calculated. A Tecan microplate reader infinite m200 instrument was then used to measure the FRET signal of each individual well using an excitation of 317/20 nm, emission europium of 620/12 nm, and emission kinase tracer of 665/12 nm after a 3 h incubation period at room temperature until steady-state kinetics were achieved.
(§3) Results were performed in duplicate and were repeated a total of 3 independent times before data was normalized to the DMSO control group and IC50 values reported.

CDK8 = CDK8 (Homo sapiens, UniProt P49336); assay: LanthaScreen europium kinase binding assay (FRET displacement), CDK8
Chain of CDK8 (P49336 whole entry): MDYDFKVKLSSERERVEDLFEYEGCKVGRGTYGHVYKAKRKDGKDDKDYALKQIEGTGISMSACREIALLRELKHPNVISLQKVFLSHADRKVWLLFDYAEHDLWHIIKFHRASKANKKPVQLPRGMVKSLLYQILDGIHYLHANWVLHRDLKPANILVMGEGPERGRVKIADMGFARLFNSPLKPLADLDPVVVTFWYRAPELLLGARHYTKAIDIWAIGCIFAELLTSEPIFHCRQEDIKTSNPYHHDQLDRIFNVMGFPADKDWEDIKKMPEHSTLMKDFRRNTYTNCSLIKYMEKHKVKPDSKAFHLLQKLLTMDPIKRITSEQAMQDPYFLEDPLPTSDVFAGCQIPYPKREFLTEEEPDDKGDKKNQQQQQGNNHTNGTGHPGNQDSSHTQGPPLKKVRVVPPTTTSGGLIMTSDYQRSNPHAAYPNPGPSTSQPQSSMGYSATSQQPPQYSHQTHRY
Chain of CDK8 (P24863 whole entry partner): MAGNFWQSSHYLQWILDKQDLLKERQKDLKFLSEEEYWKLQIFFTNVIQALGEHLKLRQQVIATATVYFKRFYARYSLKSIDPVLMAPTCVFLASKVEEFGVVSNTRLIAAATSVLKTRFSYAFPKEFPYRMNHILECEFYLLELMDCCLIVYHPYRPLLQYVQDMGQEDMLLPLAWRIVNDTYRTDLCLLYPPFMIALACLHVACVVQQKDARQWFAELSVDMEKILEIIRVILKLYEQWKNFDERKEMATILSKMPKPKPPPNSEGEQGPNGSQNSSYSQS
Method: as §1
[…] An aliquot of the cocktail solution (10 μL) was added to each well of a LUMITRAC™ 200:384 flat bottom, non-treated microtiter white plate. The plate was then covered to protect light sensitive reagents and incubated for 30 min at room temperature to equilibrate before addition of any inhibitors.
as §2, §3

Chain of CDK19/CycC (Q9BWU1 whole entry): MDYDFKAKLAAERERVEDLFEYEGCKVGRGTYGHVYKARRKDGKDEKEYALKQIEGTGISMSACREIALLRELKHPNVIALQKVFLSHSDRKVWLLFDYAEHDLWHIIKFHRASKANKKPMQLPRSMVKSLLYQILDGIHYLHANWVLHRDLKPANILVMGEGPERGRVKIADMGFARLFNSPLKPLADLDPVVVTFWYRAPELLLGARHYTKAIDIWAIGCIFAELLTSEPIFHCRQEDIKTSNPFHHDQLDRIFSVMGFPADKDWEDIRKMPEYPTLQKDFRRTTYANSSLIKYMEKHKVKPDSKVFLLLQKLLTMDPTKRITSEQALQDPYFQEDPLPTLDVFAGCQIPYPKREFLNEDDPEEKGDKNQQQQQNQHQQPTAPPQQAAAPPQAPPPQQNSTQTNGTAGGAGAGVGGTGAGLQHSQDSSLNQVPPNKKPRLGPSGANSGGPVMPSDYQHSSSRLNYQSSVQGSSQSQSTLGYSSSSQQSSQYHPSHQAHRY
Chain of CDK19/CycC (P24863 whole entry partner): as the sequence (P24863 whole entry partner) above

SMILES | CDK19 Selectivity (CDK19/CycC) | IC50 (CDK19/CycC) | IC50 (CDK8)
Cc1cnccc1Nc1cnc(Nc2ccc(CC(C)C)cc2F)nc1 [Compound A59] | 2 | 0.011 µM | 0.023 µM
COc1cnccc1Nc1cnc(Nc2ccc(CC(C)C)cc2F)nc1 [Compound A61] | 1 | 0.0076 µM | 0.007 µM
Cc1cncc(F)c1Nc1cnc(Nc2ccc(CC(C)C)cc2)nc1 [Compound A62] | 1.5 | ≤ 0.0025 µM | 0.003 µM
CC(C)Cc1ccc(Nc2ncc(Nc3cncnc3)cn2)cc1 [Compound A63] | 4.8 | 1.6 µM | 7.79 µM
CCc1cnc(C)cc1Nc1cnc(Nc2ccc(CC(C)C)cc2)nc1 [Compound A64] | 2.3 | 0.389 µM | 0.905 µM
Cc1cc(Nc2cnc(Nc3ccc(CC(C)C)cc3)nc2)c(C)cn1 [Compound A65] | 2 | 1.16 µM | 2.27 µM
Cc1cncc(C)c1Nc1cnc(Nc2ccc(CC(C)C)cc2)nc1 [Compound A66] | 1.2 | 0.0046 µM | 0.0058 µM
FC(F)C(F)(F)Oc1ccc(Nc2ncc(Nc3ccncc3OC3CCCC3)cn2)cc1 [Compound A67] | 1 | 0.106 µM | 0.106 µM
CCc1cnccc1Nc1cnc(Nc2ccc(C3CCCCC3)cc2)nc1 [Compound A68] | 1 | 0.012 µM | 0.012 µM
O=C(c1ccncc1)c1cnc(Nc2ccc(F)cc2)nc1 [Compound A69] | 1.9 | 1.41 µM | 2.67 µM
CC(C)Cc1ccc(Nc2ncc(C(=O)c3ccncc3)cn2)cc1 [Compound A70] | ≥18 | ≤ 0.0025 µM | 0.046 µM
Cc1cc(C(=O)c2cnc(Nc3ccc(CC(C)C)cc3)nc2)ccn1 [Compound A71] | 3 | ≤ 0.0025 µM | 0.006 µM
CC(C)Cc1ccc(Nc2ncc(C(=O)c3ccncc3C3CC3)cn2)cc1 [Compound A72] | ≥14 | ≤ 0.0025 µM | 0.034 µM
Cc1cnccc1C(=O)c1cnc(Nc2ccc(CC(C)C)cc2)nc1 [Compound A73, (2-((4-isobutylphenyl)amino)pyrimidin-5-yl) (3-methylpyridin-4-yl) methanone] | ≥6 | ≤ 0.0025 µM | 0.016 µM
O=C(c1ccncc1)c1ccc(Nc2ccc(F)cc2)nc1 [Compound A75] | 3.9 | 0.296 µM | 1.16 µM
CC(C)Cc1ccc(Nc2ccc(-c3ccccc3)cn2)cc1 [Compound A76] | 3 | 1.72 µM | 5.1 µM
Cc1ccc(-c2ccc(Nc3ccc(CC(C)C)cc3)nc2)cc1 [Compound A77] | 3.5 | 1.08 µM | 3.76 µM
CC(C)Cc1ccc(Nc2ccc(C(=O)c3ccncc3)cn2)cc1 [Compound A78] | 2.6 | 0.005 µM | 0.013 µM
CC(C)Cc1ccc(Nc2ccc(-c3ccc(C#N)cc3)cn2)cc1 [Compound A79] |  | 10 µM | 10 µM
CC(C)Cc1ccc(Nc2ccc(-c3ccncc3)cn2)cc1 [Compound A80] | 3 | 3.33 µM | 10 µM
Fc1ccc(Nc2ccc(Oc3ccncc3)cn2)cc1 [Compound A81] |  | 10 µM | 10 µM
CC(C)Cc1ccc(Nc2ccc(-c3cccnc3)cn2)cc1 [Compound A82] | 1.5 | 0.131 µM | 0.193 µM
CC(C)Cc1ccc(Nc2ccc(Oc3ccncc3)cn2)cc1 [Compound A83] | 1 | 5.9 µM | 8.3 µM
Fc1ccc(Nc2ccc(Nc3ccncc3)cn2)cc1 [Compound A84] |  | 10 µM | 10 µM
CC(C)Cc1ccc(Nc2ccc(Nc3ccncc3)cn2)cc1 [Compound A85] | 3.8 | 0.072 µM | 0.268 µM
Cc1cccc(-c2cnc(Nc3ccc(CC(C)C)cc3)nc2)c1 [Compound A86] | 9 | 1.11 µM | 10 µM
CC(C)Cc1ccc(Nc2ncc(-c3cccnc3)cn2)cc1 [Compound A87] | 2.4 | 0.084 µM | 0.198 µM

SMILES | CDK19 Selectivity (CDK19/CycC) | IC50 (CDK19/CycC) | IC50 (CDK8)
Cc1cc(C)cc(-c2cnc(Nc3ccc(CC(C)C)cc3)nc2)c1 [Compound A88] | 2.7 | 0.557 µM | 1.49 µM
CC(C)Cc1ccc(Nc2ncc(-c3ccc(C#N)cc3)cn2)cc1 [Compound A89] |  | 10 µM | 10 µM
Cc1cc(C#N)ccc1-c1cnc(Nc2ccc(CC(C)C)cc2)nc1 [Compound A90] | 4.6 | 1.06 µM | 4.86 µM
Cc1cc(-c2cnc(Nc3ccc(CC(C)C)cc3)nc2)ccc1C#N [Compound A91] | 12 | 0.798 µM | 10 µM
CC(C)Cc1ccc(Nc2ncc(-c3cccc(C#N)c3)cn2)cc1 [Compound A92] | 3 | 0.335 µM | 1.02 µM
Cc1ccc(C#N)cc1-c1cnc(Nc2ccc(CC(C)C)cc2)nc1 [Compound A93] | 2 | 0.132 µM | 0.276 µM
Cc1cc(C#N)cc(-c2cnc(Nc3ccc(CC(C)C)cc3)nc2)c1 [Compound A94] | 2 | 0.438 µM | 0.869 µM
CC(C)Cc1ccc(Nc2ncc(-c3ccc(C#N)cn3)cn2)cc1 [Compound A95] |  | 10 µM | 10 µM
CC(C)Cc1ccc(Nc2ncc(-c3cc(C#N)ccn3)cn2)cc1 [Compound A96] | 9 | 1.11 µM | 10 µM
CC(C)Cc1ccc(Nc2ncc(-c3ccncc3)cn2)cc1 [Compound A99] | 5.6 | 1.8 µM | 10 µM
CC(C)Cc1ccc(Nc2ncc(-c3ccc(=O)[nH]c3)cn2)cc1 [Compound A100] | 5.1 | 0.283 µM | 1.43 µM
Cc1cc(-c2cnc(Nc3ccc(CC(C)C)cc3)nc2)cc(C)n1 [Compound A101, 5-(2,6-dimethylpyridin-4-yl)-N-(4-isobutylphenyl)pyrimidin-2-amine] | 4.7 | 0.822 µM | 3.84 µM
CC(C)Cc1ccc(Nc2ncc(-c3ccccc3)cn2)cc1 [Compound A102] | 1 | 10 µM | 10 µM
Cc1ccc(-c2cnc(Nc3ccc(CC(C)C)cc3)nc2)cc1 [Compound A103] | 1.3 | 7.68 µM | 10 µM
CC(C)Cc1ccc(Nc2ncc(C(=O)c3ccncc3F)cn2)cc1 [Compound A116] | 1.9 | ≤ 0.0025 µM | 0.0041 µM
Cc1cncc(F)c1C(=O)c1cnc(Nc2ccc(CC(C)C)cc2)nc1 [Compound A117] | 1.5 | 6.49 µM | 10 µM
CC(C)Cc1ccc(Nc2ncc(C(=O)c3ccncc3Cl)cn2)cc1 [Compound A118] | 1.8 | 0.0037 µM | 0.0066 µM
CC(C)Cc1ccc(Nc2ccc(C(=O)c3ccncc3F)cn2)cc1 [Compound A122] | 5 | 0.031 µM | 0.16 µM
CC(C)Cc1ccc(Nc2ccc(C(=O)c3ccncc3Cl)cn2)cc1 [Compound A123] | 5 | 0.041 µM | 0.201 µM
Cc1cc(CC(C)C)ccc1Nc1ncc(C(=O)c2ccncc2)cn1 [Compound A128] | 3.8 | 0.0089 µM | 0.034 µM
CC(C)Cc1ccc(Nc2ncc(C(=O)c3ccncc3)cn2)c(F)c1 [Compound A129] | 2.4 | ≤ 0.0025 µM | 0.0035 µM
COc1cc(CC(C)C)ccc1Nc1ncc(C(=O)c2ccncc2)cn1 [Compound A131] | 1.8 | 0.0057 µM | 0.01 µM
CC(C)Cc1ccc(Nc2ncc(C(=O)c3cccnc3)cn2)cc1 [Compound A133] | 3 | 0.265 µM | 0.797 µM
CC(C)Cc1ccc(Nc2ncc(Cc3ccncc3)cn2)cc1 [Compound A138] | 4.8 | 0.005 µM | 0.024 µM
CC(C)Cc1ccc(Nc2ncc(C(F)(F)c3ccncc3)cn2)cc1 [Compound A139] | 3.2 | 0.0055 µM | 0.018 µM
CC(C)Cc1ccc(Nc2ncc(-c3cc[nH]c(=O)c3)cn2)cc1 [Compound A141] | 1 | 10 µM | 10 µM
